Experimental data from ChEMBL document CHEMBL1201862, “PubChem BioAssay data set” (2004).
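1) Cells in 96-well plates. 2) Compound, 48 h, 5 concentrations. 3) Linear interpolation between surrounding doses. 4) Unreached endpoint = highest concentration. GI50 is the concentration that inhibits growth by half.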 Activity calls are given as the source filed them. No stated cut-off is given here; in the data, active = GI50 up to about 1.1 µM and inactive = higher.

Assays:
Assay in all cases: NCI-60 cell line screen, 48 h
[1] = system: A498
[2] = system: A549
[3] = system: CAKI-1
[4] = system: CCRF-CEM
[5] = system: COLO 205
[6] = system: DLD-1
[7] = system: DMS-114
[8] = system: DMS-273
[9] = system: EKVX
[10] = system: HCC 2998
[11] = system: HCT-116
[12] = system: HCT-15
[13] = system: HL-60
[14] = system: HOP-18
[15] = system: HOP-62
[16] = system: HOP-92
[17] = system: HT-29
[18] = system: IGROV-1
[19] = system: K562
[20] = system: KM-20L2
[21] = system: KM12
[22] = system: LOX IMVI
[23] = system: M19-MEL
[24] = system: MCF7
[25] = system: MOLT-4
[26] = system: Malme-3M
[27] = system: NCI-H226
[28] = system: NCI-H23
[29] = system: NCI-H460
[30] = system: NCI-H522
[31] = system: NCI/ADR-RES
[32] = system: OVCAR-3
[33] = system: OVCAR-4
[34] = system: OVCAR-5
[35] = system: OVCAR-8
[36] = system: RPMI-8226
[37] = system: RXF 393
[38] = system: SF-268
[39] = system: SF-295
[40] = system: SF-539
[41] = system: SK-MEL-28
[42] = system: SK-MEL-2
[43] = system: SK-MEL-5
[44] = system: SK-OV-3
[45] = system: SN12C
[46] = system: SNB-19
[47] = system: SNB-75
[48] = system: SNB-78
[49] = system: SW-620
[50] = system: U-251
[51] = system: UACC-257
[52] = system: UACC-62
[53] = system: UO-31
[54] = system: XF498

## O=C(NC(Cc1ccc(I)cc1)C(=O)O)c1ccc(Br)cc1 (centres undefined)
[1]
  GI50: > 100 µM (inactive)
[2]
  GI50: > 100 µM (inactive)
[3]
  GI50: > 100 µM (inactive)
[4]
  GI50: > 66.2 µM (inactive)
[5]
  GI50: > 100 µM (inactive)
[6]
  GI50: > 100 µM (inactive)
[7]
  GI50: 66.2 µM (inactive)
[8]
  GI50: > 100 µM (inactive)
[9]
  GI50: 17.2 µM (inactive)
[10]
  GI50: 25.9 µM (inactive)
[11]
  GI50: > 100 µM (inactive)
[12]
  GI50: > 100 µM
[13]
  GI50: > 100 µM (inactive)
[14]
  GI50: > 100 µM (inactive)
[15]
  GI50: > 100 µM (inactive)
[16]
  GI50: 76.7 µM (inactive)
[17]
  GI50: > 100 µM (inactive)
[18]
  GI50: > 100 µM (inactive)
[19]
  GI50: > 73.1 µM (inactive)
[20]
  GI50: > 100 µM (inactive)
[21]
  GI50: > 100 µM (inactive)
[22]
  GI50: > 100 µM (inactive)
[23]
  GI50: > 82.2 µM (inactive)
[24]
  GI50: > 60.4 µM (inactive)
[25]
  GI50: > 72.9 µM (inactive)
[26]
  GI50: 80.9 µM (inactive)
[27]
  GI50: > 100 µM (inactive)
[28]
  GI50: > 100 µM (inactive)
[29]
  GI50: 98.6 µM (inactive)
[30]
  GI50: 64.9 µM (inactive)
[31]
  GI50: > 100 µM (inactive)
[32]
  GI50: 89.7 µM (inactive)
[33]
  GI50: > 85.5 µM (inactive)
[34]
  GI50: > 100 µM (inactive)
[35]
  GI50: > 100 µM (inactive)
[36]
  GI50: 46.9 µM (inactive)
[37]
  GI50: > 100 µM (inactive)
[38]
  GI50: > 100 µM (inactive)
[39]
  GI50: > 100 µM (inactive)
[40]
  GI50: > 100 µM (inactive)
[41]
  GI50: > 100 µM (inactive)
[42]
  GI50: > 100 µM (inactive)
[43]
  GI50: > 67.1 µM (inactive)
[44]
  GI50: > 100 µM (inactive)
[45]
  GI50: > 100 µM (inactive)
[46]
  GI50: > 86.7 µM (inactive)
[47]
  GI50: 30.1 µM (inactive)
[48]
  GI50: > 100 µM (inactive)
[49]
  GI50: > 100 µM (inactive)
[50]
  GI50: 65.8 µM (inactive)
[51]
  GI50: > 100 µM (inactive)
[52]
  GI50: > 67.3 µM (inactive)
[53]
  GI50: > 100 µM (inactive)
[54]
  GI50: > 77.6 µM (inactive)
